Test results reported in paper PMC12645191, “Dicarboxylate and dicarboxylic acid appended supramolecular self-associating amphiphiles as antimicrobial agents against high priority bacterial pathogens” (Organic & Biomolecular Chemistry, 2025).
Where “and” joins values, the source holds several entries; their conditions need not be identical. Equal entries are not always repeated. Where two headings read alike, the source gives them in different places.

Columns and labels:
K. pneumoniae M6 = assay: inhibition of bacterial growth, OD600 after 20 h; assay type: cell-based, Klebsiella pneumoniae; conditions: SSA 5.0 mM, 2.5% ethanol, negative = enhanced growth; for inhibition at 5000 µM: Klebsiella pneumoniae, M6, 20 h, read-out: Percentage inhibition of bacterial growth, M6 (K. pneumoniae)
Protocol: (§1) With the self-associative properties of 1–10 established, the antimicrobial activity of these SSAs were determined against a panel of clinically relevant, high-priority pathogens including: P. aeruginosa PAO1; Klebsiella pneumonia (K. pneumoniae) M6; E. coli NCTC 12923; Acinetobacter baumannii (A. baumannii) ATCC 17978; S. aureus ATCC 9144; Enterococcus faecalis (E. faecalis) NCTC 775; and Enterococcus faecium (E. faecium) NCTC 12204. […] However, it should be noted that the SSA stock solution was prepared in a H2O 5% EtOH solution, to ensure that the SSA aggregates formed were in line with those characterised within the scope of the SSA self-association studies.
(§2) Section 3: Biological methods
(§3) These methods were taken directly from UK Health and Security Office (UKHSA) standard […]
(§4) Preparation of Luria Broth media (LB): Yeast extract (5.0 g), tryptone (10.0 g) and sodium chloride (10.0 g) were dissolved in dH₂O (1.0 L) then divided into bottles and autoclaved.
(§5) Preparation of Luria Broth (LB) agar plates: Agar (6.0 g) was added to LB (400 mL) and autoclaved. Once cool, the LB agar was poured into sterile petri dishes under sterile conditions and allowed to set. LB plates were stored at 4 °C until use.
(§6) Preparation of bacterial plates: Sterile LB agar plates were streaked using streaked using the desired bacteria i) Pseudomonas aeruginosa (P.aeruginosa) PAO1, ii) Klebsiella pneumoniae (K. pneumoniae) M6 iii) E. coli NCTC 12923 and iv) Acinetobacter baumannii (A. baumannii) ATCC 17978 and Gram-positive i) Staphylococcus aureus (S. aureus) ATCC 9144 ii) Enterococcus faecalis (E. faecalis) NCTC 775 and iii) Enterococcus faecium (E. faecium ) NCTC 12204, then incubated at 37 °C overnight.
(§7) Preparation of Inoculum: An initial culture was made up by inoculating LB media (5 mL) with a single colony of bacteria under sterile conditions and incubated at 37 °C with shaking overnight. The following day, overnight bacterial cultures were subcultured into fresh LB medium to a starting OD600 of 0.01.
(§8) Preparation of 96 well microplate for MIC50: The 1:100 cell suspension (150 µL) was dispensed into individual wells under sterile conditions. SSAs (30 µL) were added to the wells to equal a total volume of 180 µL in the wells. Six repeats of each concentration for each SSA were created each plate. The plates were sealed using parafilm, then incubated at 37 °C in a microplate reader for 20 hours. OD600 endpoint data was used to generate growth curves. […]

[1] = bi-directional permeability in Caco-2 cell line; assay type: in vitro ADME, human; conditions: human; for efflux ratio at 2 h / recovery at 2 h: Caco-2, pH 7.4, Caco-2; for Papp A→B at 2 h / Papp B→A at 2 h: Caco-2, pH 7.4, Caco-2, 5 or 10 µM, HBSS pH 7.4, 2 hours
Protocol: Metabolic stability was assessed in mouse and rat liver microsomes. Microsomes are subcellular fractions of hepatocytes and contain CYP450s, the predominant enzymes involved in first-pass metabolism.[66] […] A plasma protein binding assay was performed to assess the extent of compound binding to plasma proteins. This is key as only unbound compound is free to distribute and exert a pharmacological effect. […] To assess the potential for this sub-class of SSAs to be developed as drugs for oral administration, Caco-2 permeability assays were also performed, as a cellular model indicative of human intestinal permeability. […]
Sample analysis was by electrospray ionisation. […]
Bi-directional Permeability in Caco-2 Cell Line:
The bi-directional permeability in Caco-2 cell lines was determined by seeding cells onto an HTS Transwell plate. Cells were cultivated for 14-18 days in a cell culture incubator at 37 °C, 5 % CO2, 95 % relative humidity. Cell culture medium was replaced every other day. To assess monolayer integrity the transepithelial electrical resistance (TEER) across the monolayer was measured using Millicell Epithelial volt-ohm meter prior to assay and Lucifer yellow (LY) fluorescence measurement post-assay.
Test and control compounds were prepared in DMSO and diluted in Hank’s Balanced Saline […]
Solution (HBSS, pH 7.4) to a final concentration of 5 or 10 µM. Compound was added to the […]
donor compartment of the transwell plate for both apical to basolateral (A>B) and basolateral […]
to apical (B>A) measurements, with blank HBSS being added to the receiver compartment.
The transwell plate was then incubated at 37 °C, 5 % CO2 for 2 hours.

E. faecalis NCTC 775 = assay: inhibition of bacterial growth, OD600 after 20 h; assay type: cell-based, Enterococcus faecalis; conditions: SSA 5.0 mM, 2.5% ethanol, negative = enhanced growth
Protocol: as §1, §2, §3, §4, §5, §6, §7, §8

[2] = metabolic stability in liver microsomes; assay type: in vitro ADME, mouse; conditions: for microsomal CLint at 1 µM: read-out: in vitro CLint; for half-life at 1 µM: read-out: in vitro t1/2; for CLint scaled at 1 µM: liver microsomes, read-out: Scale-up CLint
Protocol: Metabolic stability was assessed in mouse and rat liver microsomes. Microsomes are subcellular fractions of hepatocytes and contain CYP450s, the predominant enzymes involved in first-pass metabolism.[66] […] A plasma protein binding assay was performed to assess the extent of compound binding to plasma proteins. This is key as only unbound compound is free to distribute and exert a pharmacological effect. […] To assess the potential for this sub-class of SSAs to be developed as drugs for oral administration, Caco-2 permeability assays were also performed, as a cellular model indicative of human intestinal permeability.
Section 3: Biological methods […]
In vitro Absorption, Distribution and Metabolism
These studies were performed by Contract Research Organisation (CRO) Pharmaron. The methodology provided within the ESI is published within the express permission of this organisation. The percentage of a compound recovered during the analysis process should be 100 %; any deviation from this value indicates experimental limitations such as unintended potential non-specific binding events to experimental equipment, solubility issues, etc.
Metabolic Stability in Rat and Mouse Liver Microsomes:
The metabolic stability of compounds at a concentration of 1 µM, in rat and mouse liver […]
/ mL) in the presence and absence of cofactor (NADPH) at 37 °C. Aliquots of each incubation were removed at 0.5, 5, 15, 30 and 60 minutes. The reaction was stopped by the addition of 5 volumes of cold acetonitrile containing analytical internal standard (IS).
Samples were then centrifuged at 3 °C, 220 g for 40 minutes to remove cell debris. The supernatant was aliquoted and added to ultra-pure H2O in a 1:1 ratio in preparation for LC- […]
Samples were analysed using a Shimadzu liquid chromatography system coupled to a Triple Quad 6500+ mass spectrometry (AB Inc.) Separation of compounds was achieved using an HSS T3 column (50 x 2.1 mm) at a temperature of 40 °C and a binary mobile phase gradient […]
at a flow rate of 0.7 mL/min. […]
acid in water) and 5 % solvent B (0.1 % formic acid in acetonitrile). […]
solvent B at 0.7 minutes, held for 0.5 minutes and then immedi ately returned to initial conditions. Sample analysis was by electrospray ionisation. […]

[3] = mouse liver microsomes, 1 µM, 0.5 mg protein/mL

Row | efflux ratio at 2 h [1] | Papp A→B at 2 h [1] [×10⁻⁶ cm/s] | Papp B→A at 2 h [1] [×10⁻⁶ cm/s] | recovery at 2 h ([1]; read-out: Recovery (%) AP-BL) [%] | recovery at 2 h ([1]; read-out: Recovery (%) BL-AP) [%] | Hepatic Extraction Ratio (ER) ([2]; mouse) | Predicted Hepatic CLH ([2]; mouse) [mL/min/kg] | microsomal CLint at 1 µM [2, 3] [µL/min/mg] | half-life at 1 µM [2, 3] [h] | Remaining percentage ([2]; mouse, +Cofactors, 0.5 min) [%] | Remaining percentage ([2]; mouse, +Cofactors, 5 min) [%] | Remaining percentage ([2]; mouse, +Cofactors, 15 min) [%] | Remaining percentage ([2]; mouse, +Cofactors, 30 min) [%] | Remaining percentage ([2]; mouse, +Cofactors, 60 min) [%] | Remaining percentage ([2]; mouse, -Cofactors, 0.5 min) [%] | Remaining percentage ([2]; mouse, -Cofactors, 60 min) [%] | CLint scaled at 1 µM ([2]; mouse) [mL/min/kg] | Structure (SMILES) | Percentage inhibition of bacterial growth, M6 (K. pneumoniae) (K. pneumoniae M6) | Percentage inhibition of bacterial growth, NCTC 775 (E. faecalis) (E. faecalis NCTC 775) | inhibition at 5000 µM (K. pneumoniae M6) [%] | further results
1 | 1.93 | 0.17 | 0.32 | 115 | 106 | < 0.26 | < 23.07 | < 7.5 | > 3.08 | 100.00 | 101.88 | 100.09 | 97.61 | 103.16 | 100.00 | 103.83 | < 31 | O=C(O)CC[C@H](NC(=O)Nc1ccc(Br)cc1)C(=O)O [SSA 9] |  |  |  | Percentage inhibition of bacterial growth, M6 (K. pneumoniae) (K. pneumoniae M6; listed as 9): 21.69% and 22%; Percentage inhibition of bacterial growth, NCTC 775 (E. faecalis) (E. faecalis NCTC 775; listed as 9): 20%
2 |  |  |  |  |  | < 0.26 | < 23.07 |  |  | 100.00 | 101.97 | 102.46 | 101.55 | 102.31 | 100.00 | 102.89 |  | O=C(O)CC[C@H](NC(=O)Nc1ccc(C(F)(F)F)cc1)C(=O)O [SSA 2] | 17.56% and 18% | 21.86% and 22% |  | Scale-up CLint ([2]; mouse): < 31.02 mL/min/kg; in vitro CLint [2, 3]: < 7.50 µL/min/mg; in vitro t1/2 [2, 3]: > 3.0797 h
3 | 2.31 | 0.1 | 0.24 | 103 | 87.4 | < 0.26 | < 23.07 | < 7.5 | > 3.08 | 100.00 | 99.16 | 100.05 | 98.24 | 98.27 | 100.00 | 93.98 | < 31 | O=C(O)CC[C@@H](NC(=O)Nc1ccc(C(F)(F)F)cc1)C(=O)O [SSA 3] |  |  | 15.4 | Percentage inhibition of bacterial growth, M6 (K. pneumoniae) (K. pneumoniae M6; listed as 3): 15%; inhibition at 5000 µM (E. faecalis NCTC 775; Enterococcus faecalis, NCTC775, 20 h, read-out: Percentage inhibition of bacterial growth, NCTC 775 (E. faecalis)): 98.8%; Percentage inhibition of bacterial growth, NCTC 775 (E. faecalis) (E. faecalis NCTC 775; listed as 3): 99%
4 | 1.23 | 0.19 | 0.23 | 107 | 89.7 | < 0.26 | < 23.07 | < 7.5 | > 3.08 | 100.00 | 100.09 | 98.69 | 98.11 | 105.07 | 100.00 | 103.10 | < 31 | O=C(O)CC[C@H](NC(=O)Nc1ccc(C(F)(F)F)cc1)C(=O)O [SSA 1] | 26% | 98.79% and 99% | 26.2 | 
